Measurements taken from US10745401B2, “Condensed lactam derivative” (Sumitomo Dainippon Pharma Co., Ltd., priority 2018, dated 2020).

Key:
human 5-HT1A receptor [1] = target: T1, human 5-HT1A receptor (Homo sapiens (Human), UniProt P08908); experiment: Test 1: binding activity for human 5-HT1A receptor ([3H]8-OH-DPAT, CHO cell membrane fraction)
Summary of the method: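 Membranes incubated with [3H]8-OH-DPAT and compound for 60 min at room temperature, then filtered on polyethylenimine-coated glass-fibre plates and counted by liquid scintillation. IC50 from Hill analysis; Ki = IC50/(1+S/Kd), Kd from saturation binding on the same membranes.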

human D2 receptor = human D2 receptor (Homo sapiens (Human), UniProt P14416); experiment: Test 1: binding activity for human D2 receptor ([3H]Spiperone, CHO cell membrane fraction); details: human D2 receptor, [3H]Spiperone
Summary of the method: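 Compound displacement of [3H]ketanserin at 5-HT2A or [3H]spiperone at D2 was measured in CHO membrane fractions after 60 min at room temperature, with filtration and scintillation counting. IC50 was converted to Ki by Cheng–Prusoff using ligand concentration and Kd from saturation binding.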

human 5-HT1A receptor [2] = target: T1, human 5-HT1A receptor; experiment: Test 2: agonist activity for human 5-HT1A receptor ([35S]GTPγS binding); type: biochemical; details: for EC50: [35S]GTPγS binding, concentration at which half the activity of Emax was obtained; for Emax at 10 µM: agonist activity in the presence of 10 μM of compound, relative to 100 μmol/L 5-HT
Summary of the method: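 [35S]GTPγS binding read-out: after 60 min at room temperature with test compound in GDP buffer, human 5-HT1A receptor CHO membranes were vacuum-filtered and retained radioactivity scintillation-counted. Agonist activity calculated by formula.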

[3] = Test 4: metabolic stability test in human hepatic microsome; type: in vitro ADME; details: 0.1 mg/mL microsome, 0.1 μmol/L compound, 37° C., 30 minutes
Summary of the method: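 LC-MS quantified remaining parent after 30 min, 37° C, in pH 7.4 25 mmol/L phosphate containing 0.1 mg/mL human hepatic microsomes, 3.2 mmol/L NADPH and 0.1 μmol/L test compound. Value given as −LN(residual ratio)/30/0.1, mL/min/mg protein.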

hERG channel = hERG channel (Homo sapiens (Human), UniProt Q12809); experiment: Test 6-1: inhibitory activity for hERG channel (auto patch clamp, Qpatch); type: cell-based; details: whole cell auto patch clamp, hERG-CHO cells; read-out: hERG inhibition IC50
Summary of the method: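 Whole-cell patch clamp on an automated system using CHO cells stably expressing human hERG (IKr); 15 s pulse interval. Four increasing compound concentrations applied cumulatively; mean peak tail current from last 3 stimulations per concentration used. IC50 from inhibition versus pre-compound current, fitted by Hill equation.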

Chain of hERG channel (Q12809 whole entry): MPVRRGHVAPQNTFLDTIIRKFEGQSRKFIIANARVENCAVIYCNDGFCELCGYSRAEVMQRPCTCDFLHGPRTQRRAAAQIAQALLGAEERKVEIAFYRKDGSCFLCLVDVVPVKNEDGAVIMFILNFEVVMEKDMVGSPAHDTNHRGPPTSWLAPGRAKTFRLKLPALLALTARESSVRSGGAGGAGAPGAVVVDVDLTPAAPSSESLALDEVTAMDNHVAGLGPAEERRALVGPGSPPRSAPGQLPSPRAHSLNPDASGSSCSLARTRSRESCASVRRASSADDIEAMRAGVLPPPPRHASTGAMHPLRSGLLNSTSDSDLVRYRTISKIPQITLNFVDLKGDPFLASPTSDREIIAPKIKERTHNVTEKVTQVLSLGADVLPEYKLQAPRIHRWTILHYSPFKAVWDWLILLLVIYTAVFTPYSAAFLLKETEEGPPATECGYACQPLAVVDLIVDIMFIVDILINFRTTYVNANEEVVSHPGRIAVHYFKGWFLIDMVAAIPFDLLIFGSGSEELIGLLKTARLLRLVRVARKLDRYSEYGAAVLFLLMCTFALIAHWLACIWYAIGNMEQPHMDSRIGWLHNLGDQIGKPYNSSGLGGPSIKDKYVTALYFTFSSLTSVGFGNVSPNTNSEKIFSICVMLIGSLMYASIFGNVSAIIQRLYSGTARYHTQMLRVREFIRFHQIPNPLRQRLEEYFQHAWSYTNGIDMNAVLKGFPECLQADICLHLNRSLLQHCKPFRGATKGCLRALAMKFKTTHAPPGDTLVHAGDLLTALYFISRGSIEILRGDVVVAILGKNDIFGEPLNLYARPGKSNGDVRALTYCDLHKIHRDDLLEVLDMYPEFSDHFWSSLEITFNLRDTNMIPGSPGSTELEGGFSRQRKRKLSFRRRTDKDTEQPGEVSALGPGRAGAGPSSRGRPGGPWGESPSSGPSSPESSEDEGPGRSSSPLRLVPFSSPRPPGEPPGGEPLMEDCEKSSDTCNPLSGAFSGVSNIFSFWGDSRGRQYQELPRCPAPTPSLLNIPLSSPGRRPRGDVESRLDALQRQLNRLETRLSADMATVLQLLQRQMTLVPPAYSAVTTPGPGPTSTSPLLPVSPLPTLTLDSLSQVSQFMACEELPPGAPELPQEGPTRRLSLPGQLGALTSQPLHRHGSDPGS
T1 sequence (P08908 whole entry): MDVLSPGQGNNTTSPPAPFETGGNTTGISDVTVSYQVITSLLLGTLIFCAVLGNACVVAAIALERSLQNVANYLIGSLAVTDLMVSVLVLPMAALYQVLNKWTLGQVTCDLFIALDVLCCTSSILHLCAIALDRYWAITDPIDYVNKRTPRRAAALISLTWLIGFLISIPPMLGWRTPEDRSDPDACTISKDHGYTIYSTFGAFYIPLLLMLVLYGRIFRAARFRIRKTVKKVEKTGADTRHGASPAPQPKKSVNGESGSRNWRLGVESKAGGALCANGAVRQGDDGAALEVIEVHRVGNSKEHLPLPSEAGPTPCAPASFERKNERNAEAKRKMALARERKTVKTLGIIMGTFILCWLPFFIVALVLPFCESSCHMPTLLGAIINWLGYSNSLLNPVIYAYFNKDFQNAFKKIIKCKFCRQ
Chain of human D2 receptor (P14416 whole entry): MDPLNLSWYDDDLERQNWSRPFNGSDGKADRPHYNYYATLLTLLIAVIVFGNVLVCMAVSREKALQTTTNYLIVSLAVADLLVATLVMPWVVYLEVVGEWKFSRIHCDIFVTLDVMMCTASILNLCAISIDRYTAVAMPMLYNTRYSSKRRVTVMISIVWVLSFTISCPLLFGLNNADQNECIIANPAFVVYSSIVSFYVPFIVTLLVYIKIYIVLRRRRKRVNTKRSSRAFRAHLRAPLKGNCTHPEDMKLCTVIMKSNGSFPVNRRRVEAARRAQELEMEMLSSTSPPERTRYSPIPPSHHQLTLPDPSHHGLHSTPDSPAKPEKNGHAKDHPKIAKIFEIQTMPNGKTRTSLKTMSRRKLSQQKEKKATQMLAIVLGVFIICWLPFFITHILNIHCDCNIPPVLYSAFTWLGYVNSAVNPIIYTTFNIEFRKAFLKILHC

Row | SMILES | Ki (human 5-HT1A receptor [1]) [nM] | Ki (human D2 receptor) [nM] | EC50 (human 5-HT1A receptor [2]) [nM] | Emax at 10 µM (human 5-HT1A receptor [2]) [%] | Metabolic stability in human hepatic microsome [3] [mL/min/mg protein] | IC50 (hERG channel) [nM]
1 | O=C1c2nc[nH]c2CCN1CCN1CCC(c2noc3ccccc23)CC1 [Example 191, 5-{2-[4-(1,2-Benzoisoxazol-3-yl)piperidin-1-yl]ethyl}-6,7-dihydro[1,3]imidazolo[4,5-c]pyridin-4(5H)-one] | 817 | 286 | 4260 | 14 | <0.05 | 2600
2 | CCc1ncc2c(n1)CCN(CCN1CCN(c3nsc4ccccc34)CC1)C2=O [Example 93, 6-{2-[4-(1,2-Benzoisothiazol-3-yl)piperazin-1-yl]ethyl}-2-ethyl-7,8-dihydropyrido[4,3-d]pyrimidin-5(6H)-one] | 9.36 | 826 | 15.1 | 41 | 0.149 | 6600
3 | O=C1c2cn(C3CC3)nc2CCN1CCN1CCN(c2nsc3ccccc23)CC1 [Example 75] | 2.39 | 210 | 7.13 | 56 | 0.174 | 1200
4 | CC(C)c1nc2c(o1)C(=O)N(CCN1CCN(c3nsc4ccccc34)CC1)CC2 [Example 66] | 8.68 | 841 | 78.2 | 67 | 0.357 | 2100
5 | Cc1ccc2onc(C3CCN(CCN4CCc5cccnc5C4=O)CC3)c2c1 [Example 89] | 3.44 | 2250 | 53.8 | 39 | 0.050 | 1300
6 | O=C1c2cnccc2C2(CC2)CN1CCN1CCN(c2noc3ccccc23)CC1 [Example 136] | 75.8 | 2300 | 562 | 30 | 0.598 | 6000
7 | Cc1nc2c(o1)CCN(CCN1CCC(c3noc4ccccc34)CC1)C2=O [Example 39] | 0.84 | 1860 | 9.06 | 61 | 0.016 | 1800
8 | O=c1c2ncccc2ccn1CCN1CCC(c2noc3cc(F)ccc23)CC1 [Example 12] | 7.03 | 311 | 96 | 32 | 0.02 | 300
9 | Cn1ccc2c1CCN(CCN1CCN(c3noc4ccccc34)CC1)C2=O [Example 170] | 35.2 | 1680 | 823 | 42 | <0.05 | 7400
10 | Cn1cnc2c1C(=O)N(CCN1CCC(c3noc4ccccc34)CC1)CC2 [Example 133] | 327 | 914 | 290 | 26 | <0.05 | 4700
11 | O=C1c2cn(C3CC3)nc2CCN1CCN1CCC(c2noc3ccccc23)CC1 [Example 76] | 6.48 | 472 | 4.13 | 35 | 0.018 | < 270
12 | CC1CN(CCN2CCN(c3nsc4ccccc34)CC2)C(=O)c2cnn(C)c21 (centres unmarked) [Example 77] | 0.24 | 605 | 1.3 | 78 | 0.119 | 4600
13 | Cn1ncc2c1CCN(CCN1CCC(c3noc4ccccc34)CC1)C2=O [Example 130] | 23.8 | 541 | 841 | 44 | <0.05 | 1600
14 | N#Cc1cc2c(cn1)C(=O)N(CCN1CCN(c3nsc4ccccc34)CC1)CC2 [Example 102, 7-{2-[4-(1,2-Benzoisothiazol-3-yl)piperazin-1-yl]ethyl}-8-oxo-5,6,7,8-tetrahydro-2,7-naphthyridine-3-carbonitrile] | 0.25 | 852 | 1.1 | 74 | 0.194 | 1000
15 | Cn1cnc2c1C(=O)N(CCN1CCC(c3noc4ccccc34)CC1)CCC2 [Example 134] | 65.3 | 310 | 221 | 41 | <0.05 | 3500
16 | O=C1c2occc2CCN1CCN1CCC(c2noc3ccccc23)CC1 [Example 127] | 35.7 | 203 | 56.9 | 48 | <0.05 | 600
17 | O=C1c2ncccc2CCN1CCN1CCC(c2noc3ccc(F)cc23)CC1 [Example 5] | 5.78 | 7830 | 91.6 | 60 | <0.01 | 2400
18 | Cc1ccc2c(n1)C(=O)N(CCN1CCN(c3noc4ccccc34)CC1)CC2 [Example 183] | 21.9 | > 10000 | 308 | 44 | <0.05 | > 3000
19 | Cn1ncc2c1CCC(CCN1CCN(c3nsc4ccccc34)CC1)C2=O (centres unmarked) [Example 29] | 0.68 | 143 | 64.5 | 42 | 0.063 | 2300
20 | Cc1noc2ccn(CCN3CCC(c4noc5ccccc45)CC3)c(=O)c12 [Example 132] | 16 | 750 | 74.5 | 59 | 0.148 | 700
21 | Cn1c(F)cc2c1CCN(CCN1CCN(c3nsc4ccccc34)CC1)C2=O [Example 112, 5-{2-[4-(1,2-Benzoisothiazol-3-yl)piperazin-1-yl]ethyl}-2-fluoro-1-methyl-1,5,6,7-tetrahydro-4H-pyrrolo[3,2-c]pyridin-4-one] | 1.58 | 169 | 9.44 | 64 | 0.459 | 2200
22 | Cn1ncc2c1CCN(CCN1CCN(c3nsc4ccccc34)CC1)C2=O [Example 63] | 6.5 | 791 | 16 | 73 | <0.01 | 7800
23 | COc1ncc2c(n1)CCN(CCN1CCN(c3nsc4ccccc34)CC1)C2=O [Example 177] | 5.63 | 237 | – | 36 | 0.095 | 3700
